In ChEMBL document CHEMBL1157088, “Gukulenins A and B, cytotoxic tetraterpenoids from the marine sponge Phorbas gukulensis” (J Nat Prod, 2010):

How the values were obtained:
Format in all cases: functional, cell-based
MKN-45 = assay: Cytotoxicity against human MKN45 cells after 24 hrs by MTT assay; conditions: MKN-45, 24 h
FaDu = assay: Cytotoxicity against human FADU cells after 24 hrs by MTT assay
SN12C = assay: Cytotoxicity against human SN12C cells after 24 hrs by MTT assay
HCT-116 = assay: Cytotoxicity against human HCT116 cells after 24 hrs by MTT assay; conditions: HCT-116, 24 h

SMILES	IC50 (MKN-45) [nM]	IC50 (FaDu) [nM]	IC50 (SN12C) [nM]	IC50 (HCT-116) [nM]
CC(=O)O[C@@H](C=O)[C@]1(C)CC[C@H](C(C)C)[C@@H]1c1cc([C@]2(O)Cc3cc(O)c(=O)c(C)c4c3[C@@H](O2)[C@H](O)[C@]2(C)CC[C@H](C(C)C)[C@H]42)cc(O)c(=O)c1C [GUKULENIN A]	130	57	92	62
CC(=O)O[C@@H](CO)[C@]1(C)CC[C@H](C(C)C)[C@@H]1c1cc([C@]2(O)Cc3cc(O)c(=O)c(C)c4c3[C@@H](O2)[C@H](O)[C@]2(C)CC[C@H](C(C)C)[C@H]42)cc(O)c(=O)c1C [GUKULENIN B]	720	630	610	550
